Some results are limits rather than exact numbers.

For the first test, the system named is human blood (whole blood clot lysis, tPA). The experiment in a line: Thromboelastometry (ROTEM, modified in-tem with tPA): whole blood clot formation and lysis, human blood. The settings on record: Homo sapiens, read-out: EC50LT (effective concentration to delay lysis time by 50%).
Method: A modification of in-tem test as described below was used for the examination of antifibrinolytic effects of tested compounds and its interaction with platelets in citrated blood.
In a pre-warmed cuvette and holder 1 μL of Tissue plasminogen activator (tPA) (150,000 U/mL, Actylise), 20 μL of start-tem reagent (CaCl2), 20 μL of in-tem reagent (activators of coagulation system), 3 μL of DMSO (control) or tested compounds (CMs) in DMSO and 300 μL of citrated blood pre-warmed were pipetted. The cup holder containing the sample mixture was placed immediately on the appropriate channel. The measurement was recorded for 60 min to allow clot formation and lysis.
Turning to `CC(C)CCOc1ccc(S(=O)(=O)C2(C(=O)NO)CCC3(CCNCC3)C2)cc1` (stereo not shown) [Example 1-05], the EC50 is 10 to 25 µM.

As for `COC(=O)c1ccc(Oc2ccc(S(=O)(=O)C3(C(=O)NO)CCC4(CCNCC4)C3)cc2)cc1` (stereo not shown) [Example 1-06], the EC50 is greater than 25 µM. On the same count and under the same terms, then `O=C(NO)C1(S(=O)(=O)c2ccc(OCCN3CCCCC3)cc2)CCC2(CCNCC2)C1` (stereo not shown) [Example 1-11, N-hydroxy-3-(4-[2-(piperidin-1-yl)ethoxy]phenylsulfonyl)-8-azaspiro[4.5]decane-3-carboxamide], with less than 1 µM; and `CC(=O)Nc1ccc(Oc2ccc(S(=O)(=O)C3(C(=O)NO)CCC4(CCNCC4)C3)cc2)cc1` (stereo not shown) [Example 1-13], with less than 1 µM; and `COc1ccc(Sc2ccc(S(=O)(=O)C3(C(=O)NO)CCC4(CCNCC4)C3)cc2)cc1` (stereo not shown) [Example 1-15], with greater than 25 µM. On the same count and under the same terms, then `COC1CCN(c2ccc(S(=O)(=O)C3(C(=O)NO)CCC4(CCNCC4)C3)cc2)CC1` (stereo not shown) [Example 1-16, N-hydroxy-3-[4-(4-methoxypiperidin-1-yl)phenylsulfonyl]-8-azaspiro[4.5]decane-3-carboxamide], with 1 to 10 µM. On to `COc1ccc(S(=O)(=O)c2ccc(S(=O)(=O)C3(C(=O)NO)CCC4(CCNCC4)C3)cc2)cc1` (stereo not shown) [Example 1-17], for which the EC50 was in the range of 1 to 10 µM. Same read-out and setting: then `O=C(NO)C1(S(=O)(=O)c2ccc(OC3CCCCC3)cc2)CCC2(CCNCC2)C1` (stereo not shown) [Example 1-18], with 1 to 10 µM; and `O=C(NO)C1(S(=O)(=O)c2ccc(Oc3ccc(C(F)(F)F)cc3)cc2)CCC2(CCNCC2)C1` (stereo not shown) [Example 1-21], with less than 1 µM; and `COc1ccc(Oc2ccc(S(=O)(=O)C3(C(=O)NO)CCC4(CCN(CC(C)=O)CC4)C3)cc2)cc1` (stereo not shown) [Example 1-28], with 1 to 10 µM. The same measure, in the same setting: to `COc1ccc(Oc2ccc(S(=O)(=O)C3(C(=O)NO)CCC4(CCN(CC(=O)O)CC4)C3)cc2)cc1` (stereo not shown) [Example 1-29] belongs 1 to 10 µM; to `CCCN1CCC2(CC1)CCC(C(=O)NO)(S(=O)(=O)c1ccc(Oc3ccc(OC)cc3)cc1)C2` (stereo not shown) [Example 1-31], less than 1 µM.

Turning to `COc1ccc(Oc2ccc(S(=O)(=O)C3(C(=O)NO)CCC4(CCN(C5CC5)CC4)C3)cc2)cc1` (stereo not shown) [Example 1-32], the EC50 is 1 to 10 µM. On to `CNC(=O)N1CCC2(CC1)CCC(C(=O)NO)(S(=O)(=O)c1ccc(Oc3ccc(OC)cc3)cc1)C2` (stereo not shown) [Example 1-33], for which the EC50 is greater than 25 µM. Take `COc1ccc(Oc2ccc(S(=O)(=O)C3(C(=O)NO)CCC4(CCN(c5ccccc5)CC4)C3)cc2)cc1` (stereo not shown) [Example 1-34]: the EC50 was greater than 25 µM.

As to `COc1ccc(Oc2ccc(S(=O)(=O)C3(C(=O)NO)CCC4(CCN(c5ccccn5)CC4)C3)cc2)cc1` (stereo not shown) [Example 1-35], the EC50 was in the range of 1 to 10 µM. The same measure, in the same setting: then `COc1ccc(Oc2ccc(S(=O)(=O)C3(C(=O)NO)CCC4(CCN(Cc5ccccc5)CC4)C3)cc2)cc1` (stereo not shown) [Example 1-36], with 1 to 10 µM; and `COc1ccc(Oc2ccc(S(=O)(=O)C3(C(=O)NO)CCC4(CCN(Cc5ccncc5)CC4)C3)cc2)cc1` (stereo not shown) [Example 1-37], with greater than 25 µM; and `COc1ccc(-c2ccc(S(=O)(=O)C3(C(=O)NO)CCC4(CCNCC4)C3)cc2)cc1` (stereo not shown) [Example 1-41, N-hydroxy-3-(4-(4-methoxyphenyl)Phenylsulfonyl)-8-azaspiro[4.5]decane-3-carboxamide], with greater than 25 µM. Take `COc1ccc(Oc2ccc(S(=O)(=O)C3(C(=O)NO)CC34CCNCC4)cc2)cc1` (stereo not shown) [Example 1-43]: the EC50 is less than 1 µM.

`COc1ccc(Oc2ccc(S(=O)(=O)C3(C(=O)NO)CCC4(CCNCC4)C3)cc2Cl)cc1` (stereo not shown) [Example 1-56, N-hydroxy-3-(3-chloro-4-(4-methoxyphenoxyl)Phenylsulfonyl)-8-azaspiro[4.5]decane-3-carboxamide]: the EC50 was less than 1 µM. In the case of `O=C(NO)C1(S(=O)(=O)c2ccc(O)cc2)CCC2(CCNCC2)C1` (stereo not shown) [Example 1-60, N-hydroxy-3-(4-hydroxyphenylsulfonyl)-8-azaspiro[4.5]decane-3-carboxamide], the EC50 was greater than 25 µM.

With `Nc1ccc(S(=O)(=O)C2(C(=O)NO)CCC3(CCNCC3)C2)cc1` (stereo not shown) [Example 1-61], the EC50 is greater than 25 µM.

Turning to `NC(=O)c1ccc(Oc2ccc(S(=O)(=O)C3(C(=O)NO)CCC4(CCNCC4)C3)cc2)cc1` (stereo not shown) [Example 1-64], the EC50 was greater than 25 µM.

`CC(C)NC(=O)c1ccc(Oc2ccc(S(=O)(=O)C3(C(=O)NO)CCC4(CCNCC4)C3)cc2)cc1` (stereo not shown) [Example 1-65]: the EC50 was in the range of 1 to 10 µM. Same read-out and setting: to `O=C(NO)C1(S(=O)(=O)c2ccc(Cc3ccccc3)cc2)CCC2(CCNCC2)C1` (stereo not shown) [Example 1-66] belongs greater than 25 µM; to `O=C(NO)C1(S(=O)(=O)c2ccc(NCc3ccccc3)cc2)CCC2(CCNCC2)C1` (stereo not shown) [Example 1-67], less than 1 µM. The same measure, in the same setting: then `COC1CCC(Oc2ccc(S(=O)(=O)C3(C(=O)NO)CCC4(CCNCC4)C3)cc2)CC1` (stereo not shown) [Example 1-70], with less than 1 µM; and `CC(C)Oc1ccc(Oc2ccc(S(=O)(=O)C3(C(=O)NO)CCC4(CCNCC4)C3)cc2)cc1` (stereo not shown) [Example 1-72], with 1 to 10 µM. For the compound `COC(=O)c1cccc(Oc2ccc(S(=O)(=O)C3(C(=O)NO)CCC4(CCNCC4)C3)cc2)c1` (stereo not shown) [Example 1-74], the EC50 is 1 to 10 µM.

On to `O=C(O)c1cccc(Oc2ccc(S(=O)(=O)C3(C(=O)NO)CCC4(CCNCC4)C3)cc2)c1` (stereo not shown) [Example 1-75], for which the EC50 was 1 to 10 µM. Still for that read-out and setting: then `O=C(NO)C1(S(=O)(=O)c2ccc(Oc3ccc(Cl)cc3)cc2)CCC2(CCNCC2)C1` (stereo not shown) [Example 1-76], with greater than 25 µM; and `COC1CCC(Nc2ccc(S(=O)(=O)C3(C(=O)NO)CCC4(CCNCC4)C3)cc2)CC1` (stereo not shown) [Example 1-77], with 1 to 10 µM. The same measure, in the same setting: then `O=C(NO)C1(S(=O)(=O)c2cccc(NC3CCCCC3)c2)CCC2(CCNCC2)C1` (stereo not shown) [Example 1-78], with greater than 25 µM; and `O=C(Nc1ccc(S(=O)(=O)C2(C(=O)NO)CCC3(CCNCC3)C2)cc1)C1CCCCC1` (stereo not shown) [Example 1-81, N-hydroxy-3-(4-(cyclohexanecarbonylamino)Phenylsulfonyl)-8-azaspiro[4.5]decane-3-carboxamide], with less than 1 µM. Same read-out and setting: to `CNC(=O)C1CCC(Nc2ccc(S(=O)(=O)C3(C(=O)NO)CCC4(CCNCC4)C3)cc2)CC1` (stereo not shown) [Example 1-83] belongs greater than 25 µM; to `O=C(O)C1CCC(Nc2ccc(S(=O)(=O)C3(C(=O)NO)CCC4(CCNCC4)C3)cc2)CC1` (stereo not shown) [Example 1-84], less than 1 µM. Consider `O=C(O)c1ccc(C(=O)Oc2ccc(S(=O)(=O)C3(C(=O)NO)CCC4(CCNCC4)C3)cc2)cc1` (stereo not shown) [Example 1-86], for which the EC50 is less than 1 µM.

For the compound `O=C(O)c1ccc(Oc2ccc(S(=O)(=O)C3(C(=O)NO)CCC4(CCNCC4)C3)cc2)cc1F` (stereo not shown) [Example 1-88], the EC50 was less than 1 µM. Same read-out and setting: then `CNC(=O)c1ccc(Oc2ccc(S(=O)(=O)C3(C(=O)NO)CCC4(CCNCC4)C3)cc2)cc1F` (stereo not shown) [Example 1-89], with greater than 25 µM; and `COc1cc(S(=O)(=O)C2(C(=O)NO)CCC3(CCNCC3)C2)ccc1NC1CCCCC1` (stereo not shown) [Example 1-90, N-hydroxy-3-(3-methoxy-4-(cyclohexylamino)Phenylsulfonyl)-8-azaspiro[4.5]decane-3-carboxamide], with greater than 25 µM.

Still in this test, the particulars now being: read-out: EC50LT (effective concentration to delay lysis time by 50%); human blood, tPA, assayed concentrations 1000-0.2 μM.
In the case of `COc1ccc(Oc2ccc(S(=O)(=O)C3(C(=O)NO)CCC4(CCN(Cc5cnc[nH]5)CC4)C3)cc2)cc1` (stereo not shown) [Example 1-39], the EC50 is greater than 25 µM. Same read-out and setting: then `CN(C)C(=O)c1ccc(Oc2ccc(S(=O)(=O)C3(C(=O)NO)CCC4(CCNCC4)C3)cc2)cc1` (stereo not shown) [Example 1-63], with 1 to 10 µM.
